Measured values reported in ChEMBL document CHEMBL4311969, “Polygala tenuifolia-Acori tatarinowii herbal pair as an inspiration for substituted cinnamic α-asaronol esters: Design, synthesis, anticonvulsant activity, and inhibition of lactate dehydrogenase study” (Eur J Med Chem, 2019).
pEC50, pKi: −log10 of the molar value. “And” between values parts separate entries of the source, which are not always exact repeats. Identical values can stand only once.

Columns and labels:
[1] = Volume of distribution at steady state in Sprague-Dawley rat at 20 mg/kg, iv measured upto 480 mins by LC-MS/MS analysis; format: ADME, organism-based; conditions: in vivo, read-out: Vdss
Mus musculus [2] = assay: Anticonvulsant activity in ip dosed Kunming mouse assessed as MES-induced hind limb extension administered 0.5 hrs before MES stimulation; format: functional
[3] = AUC in Sprague-Dawley rat at 20 mg/kg, iv measured upto 480 mins by LC-MS/MS analysis; format: ADME, organism-based; design: time < 8 hr, dose 20 mg/kg, route intravenous; conditions: in vivo
Mus musculus [4] = assay: Anticonvulsant activity in Kunming mouse assessed as reduction in ScPTZ-induced tonic seizure rate at 100 mg/kg, ip administered 0.5 hrs before ScPTZ stimulation relative to control; format: functional; design: scale not given: the % may be the effect or the level left
[5] = Half life in Sprague-Dawley rat at 100 mg/kg, po measured upto 480 mins by LC-MS/MS analysis; format: ADME, organism-based; conditions: in vivo
[6] = Volume of distribution at steady state in Sprague-Dawley rat at 100 mg/kg, po measured upto 480 mins by LC-MS/MS analysis; format: ADME, organism-based; conditions: in vivo, 8 h
[7] = Neurotoxicity against ip dosed Kunming mouse assessed as time remained in rod measured at 0.5 hrs by rotarod test; format: toxicity, organism-based; conditions: in vivo
[8] = Oral bioavailability in Sprague-Dawley rat at 50 mg/kg measured upto 480 mins by LC-MS/MS analysis; format: ADME, organism-based; conditions: in vivo
[9] = Noncompetitive inhibition of human LDH5 at 0.5 mM using sodium pyruvate as substrate by UV-VIS spectrophotometry method based Lineweaver-Burk plot analysis
Mus musculus [10] = assay: Anticonvulsant activity in Kunming mouse assessed as reduction in ScPTZ-induced clonic seizure at 100 mg/kg, ip administered 0.5 hrs before ScPTZ stimulation relative to control; format: functional; design: scale not given: the % may be the effect or the level left
Mus musculus [11] = assay: Anticonvulsant activity in Kunming mouse assessed as reduction in ScPTZ-induced clonic seizure at 300 mg/kg, ip administered 0.5 hrs before ScPTZ stimulation relative to control; format: functional; design: scale not given: the % may be the effect or the level left
Mus musculus [12] = assay: Anticonvulsant activity in Kunming mouse assessed as reduction in ScPTZ-induced seizure at 100 mg/kg, ip administered 0.5 hrs before ScPTZ stimulation relative to control; format: functional; design: scale not given: the % may be the effect or the level left
Mus musculus [13] = assay: […] activity in ip dosed Kunming mouse assessed as reduction in formalin-induced paw licking administered 0.5 hrs before formalin stimulation; format: functional
[14] = Protective index, ratio of TD50 for neurotoxicity against ip dosed Kunming mouse assessed as time remained in rod measured at 0.5 hrs by rotarod test to ED50 for anticonvulsant activity in ip dosed Kunming mouse assessed as MES-induced hind limb extension administered 0.5 hrs; format: toxicity, organism-based; conditions: in vivo, read-out: PI
Mus musculus [15] = assay: Potency index, ratio of ED50 of stiripentol to ED50 of compound anticonvulsant activity in ip dosed Kunming mouse assessed as MES-induced hind limb extension administered 0.5 hrs before MES stimulation; format: functional
[16] = Protective index, ratio of TD50 for neurotoxicity against ip dosed Kunming mouse assessed as time remained in rod measured at 0.5 hrs by rotarod test to ED50 for […] activity in ip dosed Kunming mouse assessed as reduction in formalin-induced paw licking administered 0.5 hrs before formalin stimulation; format: toxicity, organism-based; conditions: in vivo, read-out: PI
[17] = Cmax in Sprague-Dawley rat at 20 mg/kg, iv measured upto 480 mins by LC-MS/MS analysis; format: ADME, organism-based; design: dose 20 mg/kg, route intravenous; conditions: in vivo
[18] = molecular target: GABA-A receptor; alpha-1/beta-2/gamma-2 (Homo sapiens) (UniProt P14867+P47870+P18507); assay: Agonist activity at GABA alpha1beta2gamma2 receptor in human HEK293T at 3.3 to 300 uM at -50 mV holding potential by whole cell voltage clamp assay relative to control; format: protein-complex assay
[19] = Tmax in Sprague-Dawley rat heart at 50 mg/kg, po; format: ADME, organism-based
[20] = Tmax in Sprague-Dawley rat kidney at 50 mg/kg, po; format: ADME, organism-based
[21] = Drug uptake in Sprague-Dawley rat heart at 50 mg/kg, po; format: ADME, organism-based; conditions: in vivo
[22] = Drug metabolism in Sprague-Dawley rat assessed as retention time by HPLC/MS analysis; format: ADME
[23] = molecular target: T1, GABA-A receptor; alpha-1/beta-2/gamma-2 (Homo sapiens, UniProt P14867+P18507+P47870); assay: Agonist activity at GABA alpha1beta2gamma2 receptor in human HEK293T at -50 mV holding potential by whole cell voltage clamp assay; format: protein-complex assay
T1 sequence (P14867 whole entry): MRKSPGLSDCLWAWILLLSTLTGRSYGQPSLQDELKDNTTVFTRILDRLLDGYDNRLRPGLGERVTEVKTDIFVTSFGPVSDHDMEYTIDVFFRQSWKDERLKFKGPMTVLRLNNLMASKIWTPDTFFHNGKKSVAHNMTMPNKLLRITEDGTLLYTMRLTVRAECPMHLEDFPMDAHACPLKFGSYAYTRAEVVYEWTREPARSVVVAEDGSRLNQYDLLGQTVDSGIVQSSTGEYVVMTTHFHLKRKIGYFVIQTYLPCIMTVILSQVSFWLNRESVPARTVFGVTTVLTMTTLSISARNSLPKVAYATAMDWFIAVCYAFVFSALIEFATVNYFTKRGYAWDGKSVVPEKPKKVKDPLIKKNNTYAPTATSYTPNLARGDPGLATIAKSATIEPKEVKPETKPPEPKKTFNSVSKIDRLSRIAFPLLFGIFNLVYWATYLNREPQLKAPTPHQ
T1 sequence (P47870 whole entry): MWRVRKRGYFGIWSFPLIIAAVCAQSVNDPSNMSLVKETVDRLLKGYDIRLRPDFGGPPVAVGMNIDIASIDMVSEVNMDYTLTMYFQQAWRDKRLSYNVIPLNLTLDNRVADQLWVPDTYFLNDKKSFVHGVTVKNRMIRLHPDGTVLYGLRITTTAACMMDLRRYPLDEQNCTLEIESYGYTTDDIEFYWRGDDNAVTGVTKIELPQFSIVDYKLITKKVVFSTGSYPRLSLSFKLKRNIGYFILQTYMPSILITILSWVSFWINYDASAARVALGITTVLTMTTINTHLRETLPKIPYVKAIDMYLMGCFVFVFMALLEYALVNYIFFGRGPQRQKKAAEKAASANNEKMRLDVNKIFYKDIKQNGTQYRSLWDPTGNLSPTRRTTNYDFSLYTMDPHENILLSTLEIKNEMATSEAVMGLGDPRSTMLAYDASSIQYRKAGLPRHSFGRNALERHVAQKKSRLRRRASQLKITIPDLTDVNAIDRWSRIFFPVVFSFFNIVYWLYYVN
T1 sequence (P18507 whole entry): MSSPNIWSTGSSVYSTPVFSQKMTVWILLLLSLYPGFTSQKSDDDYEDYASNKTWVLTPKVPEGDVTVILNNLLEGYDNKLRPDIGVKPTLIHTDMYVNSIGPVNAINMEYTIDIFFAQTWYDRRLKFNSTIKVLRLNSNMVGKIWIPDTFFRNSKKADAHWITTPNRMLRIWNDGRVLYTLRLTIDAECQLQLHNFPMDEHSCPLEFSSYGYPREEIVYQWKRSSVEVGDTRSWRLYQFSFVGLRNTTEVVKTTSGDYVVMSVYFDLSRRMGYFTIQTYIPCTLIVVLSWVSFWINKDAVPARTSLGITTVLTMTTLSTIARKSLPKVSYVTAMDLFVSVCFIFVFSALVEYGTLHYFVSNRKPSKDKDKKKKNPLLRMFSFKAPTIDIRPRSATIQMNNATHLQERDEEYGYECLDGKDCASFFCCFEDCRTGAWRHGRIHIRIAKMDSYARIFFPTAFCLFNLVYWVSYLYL

Row | SMILES | Vd [1] | ED50 (Mus musculus [2]) | AUC at 8 h [3] | Activity (Mus musculus [4]) | half-life [5] | Vdss [6] | TD50 at 0.5 h [7] | bioavailability [8] | Activity (Mus musculus [10]) | Activity (Mus musculus [11]) | ED50 (Mus musculus [13]) | selectivity ratio at 0.5 h [14] | selectivity ratio at 0.5 h [16] | Cmax [17] | further results
1 | COc1cc(OC)c(OC)cc1/C=C/COC(=O)/C=C/c1cc(OC)c(OC)c(OC)c1OC | 1.98 L/kg | 65.1 µmol/kg and 30.9 mg/kg | 2940 ng·h/mL | 75% | 57 min | 9.98 L/kg | > 2110 µmol/kg and > 1000 mg/kg | 31.4% | 100% | 100% | 42.2 mg/kg and 89 µmol/kg | > 32.4 | 23.7 | 6220 ng/mL | pKi [9]: 5.32; Activity (Mus musculus [12]): 100%; Ratio ED50 (Mus musculus [15]): 3.96
2 | COc1cc(OC)c(OC)cc1/C=C/COC(=O)/C=C/c1c(OC)cc(OC)c(OC)c1OC | 2.14 L/kg | 71.4 µmol/kg and 33.9 mg/kg | 3000 ng·h/mL | 25% | 58.5 min | 11.26 L/kg | 1970 µmol/kg and 936 mg/kg | 34.8% | 100% | 100% | 46.3 mg/kg and 97.6 µmol/kg | 27.7 | 21.6 | 6480 ng/mL | %max [18]: 356%; Tmax [19]: 60 min; Tmax [20]: 60 min; Drug uptake [21]: Active; Retention_time [22]: 40.6 min; pEC50 [23]: 4.33
